The source of these data is patent publication US20250207131A1, “MODIFIED RNA AGENTS WITH REDUCED OFF-TARGET EFFECT” (Alnylam Pharmaceuticals, Inc., priority 2018, published 2025).

For orientation: IC50 means the concentration that inhibits the measured activity by half. A higher IC50 goes with weaker potency.

Data set [1] deals with luciferase reporter plasmids (psiCHECK2, Renilla luciferase fused to target sequence). In words: Off-target Dual-Glo luciferase reporter assay in COS-7 cells. To be noted: HAO1 (Seq 1); luciferase reporter plasmids co-transfected with siRNAs into COS-7 cells. The data set is classed as cell-based. As to the method:
Dual-Glo® Luciferase assay: Cos7 cells (ATCC, Manassas, VA) were grown to near confluence at 37° C. in an atmosphere of 5% CO2 in DMEM (ATCC) supplemented with 10% FBS, before being released from the plate by trypsinization. siRNA and psiCHCECK2 plasmid transfection was carried out by adding 5 μL of siRNA duplexes and 5 μL of psiCHECK2 plasmid per well along with 5 μL of Opti-MEM plus 0.1 μL of Lipofectamine 2000 per well (Invitrogen, Carlsbad CA. cat #13778-150) and then incubated at room temperature for 15 minutes. The mixture was then added to the cells which were re-suspended in 35 ul of fresh complete media. The transfected cells were incubated at 37° C. in an atmosphere of 5% CO2.
48 hours after the siRNAs and psiCHECK2 plasmid were transfected; Firefly (transfection control) and Renilla (fused to target sequence) luciferase were measured. First, media was removed from cells. Then Firefly luciferase activity was measured by adding 20 μL of Dual-Glo® Luciferase Reagent equal to the culture medium volume to each well and mix. The mixture was incubated at room temperature for 30 minutes before luminescence (500 nm) was measured on a Spectramax (Molecular Devices) to detect the Firefly luciferase signal. Renilla luciferase activity was measured by adding 20 μL of room temperature of Dual-Glo® Stop & Glo® Reagent was added to each well and the plates were incubated for 10-15 minutes before luminescence was again measured to determine the Renilla luciferase signal. The Dual-Glo® Stop & Glo® Reagent, quenches the firefly luciferase signal and sustained luminescence for the Renilla luciferase reaction. siRNA activity was determined by normalizing the Renilla signal to the Firefly (control) signal within each well. The magnitude of siRNA activity was then assessed relative to cells that were transfected with the same vector but were not treated with siRNA or were treated with a non-targeting siRNA. All transfections were done at n=2 or greater.

Data set [2] can be described thus: Rat toxicity study, clinical pathology parameters. To be noted: rats, single subcutaneous dose 30 mg/kg, cohort average.
Data set [3] deals with GO1 (HAO1). In words: In vitro on-target activity, primary mouse hepatocytes, transfection, RT-qPCR (GO1/HAO1 siRNAs). The data set is classed as cell-based. To be noted: HAO1 (Seq 1). The protocol: Cell culture and transfections: Primary Mouse Hepatocytes (Thermo Fisher Scientific/Gibco) were transfected by adding 4.9 μL of Opti-MEM plus 0.1 μL of Lipofectamine RNAiMax per well (Invitrogen, cat #13778-150) to 5 μL of siRNA duplexes per well into a 384-well plate and incubated at room temperature for 15 minutes. 40 μL of Dulbecco's Modified Eagle Medium (Hep3b) or William's Medium (PMH) containing ˜5 ×10^3 cells were then added to the siRNA mixture. Cells were incubated for 24 hours at 37° C. and then processed for RNA purification. Experiments were performed at 10 nM and 0.1 nM doses of siRNA.
Total RNA isolation using DYNABEADS mRNA Isolation Kit: RNA was isolated using an automated protocol on a BioTek-EL406 platform using DYNABEADs (Invitrogen, cat #61012). Briefly, 70 μL of Lysis/Binding Buffer and 10 μL of lysis buffer containing 3 μL of magnetic beads were added to each well. […]
Real time PCR: 2 μL of cDNA were added to a master mix containing 2 μL water, 0.5 μL of either an appropriate GAPDH TaqMan VIC Probe or the target probe and 5 μL Lightcycler 480 probe master mix (Roche, cat #04887301001) per well in a 384 well plate (Roche, cat #04887301001). […] To calculate relative fold change, real time data were analyzed using the ΔΔCt method and normalized to assays performed with cells transfected with a non-targeting control siRNA.
Background: In qPCR the cycle at which signal appears reflects the starting amount.

For data set [4] the following is noted: rat, in vivo, sc, 30 mg/kg.

In turn, “Parent (AD-65644): GO1 siRNA; passenger g•a•auguGaaAGucaucgacaa(L), guide u•U•gucGaUGacuuUcAcauuc•u•g (sense AUGUGAAAGUCAUCGACAA; antisense GUCGAUGACUUUCACAUUC; phosphorothioate ends, overhangs, chemistry not fully specified)” displayed an IC50 in data set [1] of 0.53 nM. In addition, in data set [2], the “ALB Avg.” value came out at 3.0 g/dL, the “ALP Avg.” value was determined as 449 U/L, the “ALT Avg.” value is listed as 47 U/L and the “AST Avg.” value came to 180 U/L. Besides, in data set [2], the “BILI Avg.” value is given as 0.52 mg/dL, the “CA Avg.” value was found to be 10.3 mg/dL, the “CHOL Avg.” value amounted to 74 mg/dL and the “CREAT Avg.” value is recorded as 0.23 mg/dL. For the same substance, in data set [2], the “GLDH Avg.” value is listed as 77.5 U/L, the “GLOB Avg.” value worked out at 2.63 g/dL, the “GLUC Avg.” value stood at 113 mg/dL and the “K Avg.” value is 4.3 mmol/L. Moreover, in data set [2], the “NA Avg.” value is 140 mmol/L, the “PHOS Avg.” value was found to be 8.8 mg/dL, the “PROT Avg.” value was determined as 6 g/dL and the “TRIG Avg.” value is 138 mg/dL. In data set [2], the “UREAN Avg.” value is 16.8 mg/dL. Moreover, the “On-Target mRNA remaining (%) 0.1 nM siRNA” value in data set [3] (0.1 nM siRNA) is 96.1%. Further, the “On-Target mRNA remaining (%) 10 nM siRNA” value in data set [3] (10 nM siRNA) is 27.7%. The “A/G Avg.” value in data set [4] stood at 1.1.
